From patent publication US10725042B2, “Methods of diagnosing and treating cancer” (Case Western Reserve University, priority 2012, dated 2020)

Columns and labels:
H1975 wild type cells = experiment: PCNA dissociation by bi-parametric flow cytometry, H1975 wild type cells; format: cell-based, human; conditions: treated samples
Experimental: Propidium iodine (PI) staining of methanol fixed cells was for cell cycle determinations. Where indicated, FITC labeled PCNA antibody (PCNA-FITC, Abcam) was added for PCNA detection. Uni-parameter (PI-only) and dual-parameter (PI+PCNA-FITC) analysis was performed on a Coulter flow cytometer (EPICS-XL-MCL). Cell cycle histograms (PI) and PCNA dot plots (PCNA-FITC) were de-convoluted from ≥20,000 events using FlowJo software.
Prolonged S-phase arrest is known to result in DNA DSB formation due to the collapse of stalled replication forks. We evaluated the stability of the DNA replication fork in pemetrexed treated lung cancer cells with native and reduced levels of UNG protein. Nucleotide incorporation experiments using CldU and IdU indicate decreased postpemetrexed treatment nucleotide incorporation (data not shown). […] Using bi-parametric flow cytometry we measured the dissociation of the replication fork processivity factor, PCNA at the single cell level in H1975 cells expressing UNG directed shRNA. Similar assays have been utilized to detect replication fork disassembly following etoposide and hydroxyurea exposure. PCNA dissociation was determined by the percentage of cells in S phase having low PCNA (red box, FIG. 11d). […] As a complimentary experiment, we examined the expression of chromatin-bound PCNA after pemetrexed treatment by western blot of chromatin cellular extracts.

[1] = treatment of lung cancer; cited from earlier work
[2] = system: AP sites in DNA of H460 cells; experiment: AP site assay (ARP), H460 cells; format: cell-based, human; conditions: pemetrexed 0-400 nM, MX 6 mM, 24 hrs
Experimental: (§1) The number of AP sites was measured using ARP (aldehyde reactive probe) reagent. The assay was performed as previously described. Briefly, cells (2×10^6) were collected after drug treatment and DNA was extracted. DNA (10 μg) was incubated with 15 μl of 1 mM ARP (Dojindo Laboratories, Kumamoto, Japan), and then precipitated and washed with ice-cold ethanol. The ARP-labeled DNA was then heat-denatured at 100° C. for 5 min, quickly chilled on ice and mixed with an equal volume of 2 M ammonium acetate. The DNA was then immobilized on a BA-S 85 nitrocellulose membrane (Schleicher and Schuell, Dassel, Germany) using a minifold II vacuum filter device (Schleicher and Schuell, Dassel, Germany). The membrane was incubated with 0.25% BSA-PBS containing streptavidin-conjugated horseradish peroxidase (BioGenex, SanRamon, Calif.) at room temperature for 40 min with gentle shaking. ARP-labeled AP sites were visualized by chemiluminescence (Amersham Corp, Piscataway, N.J.) followed by quantitative densitometry using NIH Image J software.

[3] = system: AP sites in DNA of UDG+/+ cells; experiment: AP site assay (ARP), UDG+/+ cells; format: cell-based, human; conditions: pemetrexed 0-400 nM, 24 hrs
Experimental: as §1

H460 cells = experiment: Clonogenic survival assay, H460 cells; format: cell-based; conditions: Homo sapiens, NCI-H460, read-out: IC50 values for pemetrexed
Experimental: Tumor cells (500-2000/dish) were plated and treated with pemetrexed (0-400 nM), 5-fluorouracil (0-20 μM), temozolomide (0-1500 μM), or cisplatin (0-40 μM). After 7 days, surviving colonies were stained with methylene blue for 30 min at room temperature and the colonies containing more than 50 cells were counted to generate survival curves.

DLD1/UDG−/− cells = experiment: Cell cycle analysis, UDG−/− cells; format: cell-based, human; conditions: pemetrexed 25 nM
Experimental: For cell cycle analysis, 10^6 cells (DLD1/UDG^+/+ and DLD1/UDG^−/−) were plated in 100-mm tissue culture dishes and exposed to pemetrexed (25 nM). After 6, 24 and 72 h of culture, cells were fixed with 80% methanol and washed with ice-cold 1% BSA/PBS. DNA was stained with 20 μg/mL propidium iodide (Sigma-Aldrich) and 2.5 μg/mL of DNase-free RNase A (Roche). The DNA fluorescence of propidium iodide-stained cells was measured with an Elite ESP flow cytometer/cell sorter (Coulter, Miami, Fla.).

UDG+/+ cells = experiment: Replication foci stained with CldU and IdU, UDG+/+ cells; format: cell-based, human; conditions: pemetrexed 25 nM, n=10 cells
Experimental: DNA replication sites were visualized by incorporation of chlorodeoxyuridine (CldU) and iododeoxyuridine (IdU) into DNA. UDG^−/− and UDG^+/+ cells were labeled with 100 μM CldU (ICN, Irvine, Calif.) or IdU (Sigma Chemical Co., St. Louis, Mo.) for 45 min at different time intervals. Cells were washed with PBS, fixed with cold 70% ethanol, and stored at 4° C. For antibody staining, the ethanol was removed, and 100% methanol was added for 5 min. Cells were washed twice with PBS and incubated with 1.5 M HCl for 30 min to denature the DNA. Cells were washed with PBS, permeabilized with 0.5% Tween 20 in PBS for 5 min, and then incubated in 5% BSA (Sigma Chemical Co.) and in PBS for 20 min to reduce nonspecific binding. Primary antibodies CldU (rat anti-BrdU; Accurate Chemical and Science Co., Westbury, N.Y.) and IdU (mouse anti-BrdU; BD Biosciences) were diluted in 1% BSA buffer, added to the slides, and incubated in a humid environment for 2 hrs. Slides were washed with PBS-Tween 20 and then in a high-salt buffer (200 mM NaCl, 0.2% Tween 20, and 0.2% NP-40 in PBS) for 15 min. The samples were incubated with secondary antibodies for 1 h. Finally, slides were washed with PBSTween 20, mounted with Vectashield antifade mounting medium (Vector Laboratories, Inc., Burlingame, Calif.), and stored at 4° C. […] Fluorescence density of CldU or IdU was quantified by NIH image J software.

Nc1nc2[nH]cc(CCc3ccc(C(=O)N[C@@H](CCC(=O)O)C(=O)O)cc3)c2c(=O)[nH]1 [pemetrexed]
cells in S phase having low PCNA (H1975 wild type cells): less than 1%
response rate [1]: 30-40%
ARP-detected AP sites [2]: increased as the concentration of pemetrexed increased
AP sites in DNA [3]: dose-dependent formation of AP sites
IC50 (H460 cells): 110 nM
cells arrested in S-phase (DLD1/UDG−/− cells; 6 hr): ~25%
cells arrested in S-phase (DLD1/UDG−/− cells; 24 hr): 36%
cells in S-phase (DLD1/UDG−/− cells; 72 hr): 35%
cells undergone apoptosis (subG1) (DLD1/UDG−/− cells; 72 hr): ~22%
ratio of IdU to CldU (fluorescence density) (UDG+/+ cells; 6-hr sample): 0.7±0.13
ratio of IdU to CldU (fluorescence density) (UDG+/+ cells; 18-hr sample): 0.9±0.31
